Reference: patent US6294650A, “Inhibition of mammalian telomerase by peptide nucleic acids” (The Board of Regents, University of Texas System, priority 1999, dated 2001)
Read-outs that look alike come from different tables or passages of the source.

Columns and labels:
human telomerase [1] = assay: TRAPeze telomerase assay, HME50-5 cell lysate preincubated with PNA (PNA scanning); format: biochemical; conditions: 25° C., 30 min preincubation
Protocol: The source of telomerase was human immortal primary breast epithelial cell line (HME50-5). Cultured cells (10^5 -10^6) were lysed as recommended in the protocol supplied by Oncor. Cell lysates containing 200 cell equivalents were preincubated at 25° C. for 30 minutes with PNA (0 to 100 μM, diluted in 10 mM Tris pH 8.3 and 10 μg ml^-1 bovine serum albumin (BSA)). PNAs sometime aggregated upon prolonged storage, so PNA stocks were briefly heated to 55° C. prior to addition to assay mixtures to ensure reproducible inhibition. Following preincubation, TRAPeze reaction mixture (20 mM Tris-HCl, pH 8.3, 1.5 mM MgCl2, 63 mM KCl, 0.05% Tween 20, 1 mM EGTA, and 0.01% BSA, 50 μM dNTPs, and primer mix supplied in the kit) was added directly to the mixture of PNA and cell extract. This reaction was incubated at 25° C. for 30 minutes to allow telomerase to elongate the TS primer. […] The tubes were transferred to a PCR thermocycler, and a two-step cycle (30 sec 94° C. and 30 sec 60° C.) was performed 27 times. Samples were analyzed using nondenaturing polyacrylamide gel electrophoresis.
Telomerase products and an internal PCR control were quantitated by phosphorimager analysis (Molecular Dynamics). The lanes were divided into one region encompassing the telomerase products and another including the internal standard signal. The radioisotope density was integrated for each area, and the ratio of telomerase product to internal standard was determined. This value was normalized to a positive control (no PNA added) where the ratio of telomerase products to internal standard was assigned 100% activity. The extent inhibition was plotted against the final PNA concentration used in the preincubation reaction, and these graphs were used to estimate the IC50 values.
These PNAs were incubated with telomerase-containing cell extracts derived from a human immortal primary breast epithelial cell line (HME50-5) and assayed their influence on telomerase activity using the telomere repeat amplification protocol (TRAP) (Holt et al., supra).

[2] = system: complementary DNA oligonucleotides; assay: Melting temperature of PNA:DNA duplexes, absorbance at 260 nm; format: physicochemical; conditions: PNA with complementary DNA, 20 μM each, 1.0 M phosphate pH 7.6
Protocol: Determinations were done in a volume of 0.5 mL in a capped cuvette. […] Absorbance was recorded from 25° C. to 90° C. in 4° C. or 5° C. increments using a 2 minute equilibration time between each measurement. DNA oligonucleotides used for measuring Tm values, and their complementary PNAs were as follows; [NT] […] ID NO:31) ([…] ID NO:32) (PNAs 7, 17). Melting temperatures were measured (Tm) of duplexes between PNAs and their DNA complements to ensure that the PNAs used in these studies could form duplexes with complementary sequences at the assay temperature of 25° C. DNA oligonucleotides were used because employment of DNA rather than RNA facilitated analysis of the large number of PNAs that required assay. Comparison to RNA:PNA melting temperatures is justified because Tm 's for PNA:DNA and PNA:RNA hybrids are similar.

human telomerase [3] = assay: Km app of telomerase for TS primer (TRAP assay with varied TS primer); format: biochemical; conditions: TS primer 0 to 60 nM, 30 min at 25° C.; read-out: apparent binding constant, Km app, of telomerase for TS primer
Protocol: Telomerase assays were performed essentially as described above with slight modifications. Both the TS and CX primers (0.1 μg) were placed below the wax barrier and the concentration of TS primer was varied from 0 nM to 60 nM, above the wax barrier, in the reaction mixture. The reaction was allowed to proceed for 30 minutes at 25° C. followed by PCR as described. The products were quantitated as described with telomerase activity relative to control plotted versus the TS primer concentration.
To put the efficiency of inhibition into context, the affinity of the TS primer for telomerase was determined. Primer affinity of telomerase was determined by monitoring the level of telomerase activity as a function of concentration of the TS primer. The TS primer is complementary to only three bases of the RNA template of the hTR, and was not initially expected to bind tightly to telomerase. The TRAP assay was performed as described, except that the concentration of the TS primer above the wax barrier was varied from 0 to 60 nM. The concentration of TS primer below the wax barrier was varied to keep the total concentration constant.

| Substance | IC50 (human telomerase [1]; read-out: IC50 (μM), Table 2) | IC50 (human telomerase [1]; read-out: IC50 for inhibition of telomerase (text)) | Tm ° C., Table 2 [2] | Tm ° C., Table 2 ([2]; listed as 4) | Km (human telomerase [3]) |
| --- | --- | --- | --- | --- | --- |
| PNA 4: PNA, sequence GGGTTAGACAA | 0.01 µM | 0.01 µM | 67 °C | 71 °C | – |
| PNA 15: PNA, sequence GCCCTTCTCAG (all peptide nucleic acid (PNA)) | 0.5 µM | – | 56 °C | – | – |
| TS primer: oligonucleotide primer that can be extended by telomerase, 5'-AATCCGTCGAGCAGAGTT-3' (further chemistry not given here) | – | – | – | – | 8 nM |
